Structures are written as SMILES. Marks after values point to notes of the source that are not given here.

The values below come from patent US9023788B2, “Methods compounds and pharmaceutical compositions for treating anxiety and mood disorders” (New York University, priority 2010, dated 2015).

Series [1] is described as follows: Chronic mild stress (CMS)-anhedonia model, sweetened milk consumption. Format: in vivo. Particulars: FIG. 5. The source says: The latter property may actually be beneficial as it would counter the weight gain frequently reported with antidepressant treatment (Richelson, Mayo Clin Proc 2001; 76: 511-527).
The conditions of series [2]: in vivo; cited from earlier work.
For series [3], the system named is mice. In words: Elevated plus-maze test. Format: in vivo, mouse. Particulars: dp6FNE 0, 1, 3, 10 mg/kg i.p. plus phentolamine 1 mg/kg; Example 6, expected. As for the experimental part: (§1) To verify that dp6FNE has anxiolytic effects this agent is tested in both the light/dark box (Shimada, et al., Gen Pharmac 1995; 26: 205-210) and elevated plus-maze (Pellow, et al., J Neurosci Methods 1985; 14: 149-167). […] For the plus-maze, the animal is placed in the center section of the maze and videotaped to determine both number of entries and time spent in the open and closed arms of the maze.

The subject of series [4] is Swiss Webster male mice. In words: Repeated open space forced swim (RFS) test.
Procedure: (§2) In experiment on chronic administration, a daily dose of 0.5 mg/kg in the same vehicle was administered for 11 d.
(§3) Infusion procedure. All experiments were performed between 1000 and 1400 hr. […] A total of 350 n1 of solution was infused at 100 nl/min over a 3.5 min period with the cannula remaining in place for 30 seconds after infusion. The animal was then subjected to the behavioral tests described below making the interval between the start of infusion and start of behavioral test 4.5-5 min. […] All drugs were prepared freshly each day in saline.
In this procedure, mice are swum for 15-20 min/d for 4 d in rat tub cages (24×43×23 cm, w×h×l) filled with 13 cm high luke-warm water (32-34° C.) and thereafter once or twice a week. […] In the present experiment, the animals were matched on immobility level of the 4th swim into vehicle and drug groups and infused ivt. just prior to the 5th swim. Groups given i.p. injections were dosed initially 5 min after the 4th swim and finally 30 min prior to the 5th swim. Discs were rated as above on immobility and distance swum (number of quadrants entered).
Series [5] relates to Swiss Webster male mice. In words: Tail suspension test. Format: in vivo, mouse.
Procedure: as §2, §3
Tail suspension test: The procedure of Stem, et al., Psychopharmacology 1985; 85: 367-370 was used. Immediately following intraventricular infusion or 30 min after the third i.p. injection, the animals were taped by the tail 72 cm above a padded platform for 6 min during which time they were videorecorded. Disks were subsequently rated blind as above for times immobile during the last 4 min of the test.
The subject of series [6] is Swiss Webster male mice. In words: Observation for sedation and signs of toxicity. Format: in vivo, mouse. The text has this:
Sedation interferes with behavioral performance and is therefore a detrimental side effect to the treatment of major depressive illness in humans.
Although dp6FNE was designed to be a temporary treatment, it was of interest to determine how long it would remain effective if given repeatedly.

In another series the test system is handling-stressed mice. In words: Home cage activity after handling and injection stress. Particulars: acute i.p. dp6FNE 1 mg/kg in the presence of phentolamine; cirazoline 0.1 mg/kg; FIG. 3. Format: in vivo, mouse. As for the experimental part: FIG. 3 depicts the effect of acute i.p. dp6FNE (1 mg/kg) or cirazoline (0.1 mg/kg), (both N=1), on home cage activity in terms of rearing and ambulation, Veh (N=12).
It is known that peripheral administration of α1-agonists without phentolamine impairs exploratory behavior in the open field (Yang, et al., J Pharmacol exp Ther 1990; 255: 1064-1070).

For series [7], the system named is Swiss Webster male mice. In words: Open field motor activity and anxiety (i.p. dp6FNE/prazosin). Format: in vivo, mouse. To be noted: 1 h; dp6FNE 0.1-3 mg/kg/prazosin; amphetamine 2 mg/kg i.p. As for the experimental part: For purposes of comparison, some animals received instead d-amphetamine, 2 mg/kg, i.p. Total quadrants entered and time in the center area of the field as a ratio to the total distance traveled were rated from videorecordings.

Series [8] has as its system mice. The experiment in a line: Light/dark box test. Format: in vivo, mouse. Particulars: dp6FNE 0, 1, 3, 10 mg/kg i.p. plus phentolamine 1 mg/kg; Example 6, expected. Here is the method: as §1
The test system of series [9] is Fos expression in LC, PVH, lateral septal nucleus and NAC. To be noted: stimulation or blockade of LC α1-receptors (Stone et al. 2011); cited from earlier work.
Another series concerns α1-adrenoceptors. Particulars: cited from earlier work.
A further series relates to LC α1-adrenoceptors. In words: Novel cage test after LC microinjection. Format: in vivo, rat. Particulars: for Gross movements: 15 min novel cage.
Where [10] appears, read: Outside LC (n = 23), 3 nmoles/side.
Where [11] appears, read: Within LC (n = 25), 3 nmoles/side.
Setting [12] is: entire within LC group vs vehicle, 3 nmoles/side.

With `CC(C)(C)C(=O)Oc1cc(F)c(C(O)CN)cc1OC(=O)C(C)(C)C` (centres unmarked) [dp6FNE, Dipivalyl-6-fluoronorepinephrine], the “CMS reduction of sweetened milk intake” value in series [1] (acute i.p. dp6FNE with prazosin 0.2 mg/kg) was “eliminates the CMS reduction of intake”. Further, the hypophagia result in [1] (acute i.p. dp6FNE) was “significant hypophagia”. In addition, the “passage of the blood brain barrier / uptake by the brain” value in series [2] is on record as “does pass the blood brain barrier”. The “time spent in the open arms” value with mice [3] is reported as “increased time spent”. In addition, the “onset of action compared with available antidepressants” value with Swiss Webster male mice [4] (acute i.p. administration) is “significantly faster onset of action”. In the series on Swiss Webster male mice [4] (acute i.p., dp6FNE 1, 3, 10 mg/kg with prazosin 0.2 mg/kg, DMI 10 mg/kg, FIG. 5), the “effect in repeated open-space swim test” value is “significant antidepressant action”. The immobility versus vehicle entry with Swiss Webster male mice [4] (dp6FNE 0.3 mg/kg with prazosin 0.2 mg/kg, animals not pretreated with either antagonist) is “significantly reduced immobility versus vehicle”. Besides, in the series with Swiss Webster male mice [4] (dp6FNE 0.3 mg/kg with prazosin 0.2 mg/kg, animals not treated with either antagonist), the “distance swum versus vehicle” value is recorded as “significantly increased distances swum”. In the series with Swiss Webster male mice [4] (i.p. 0, 1, 3, 10 mg/kg with phentolamine 1 mg/kg, 30 min before swim, Example 5, expected), the “speed or efficacy compared with partial α1-agonists” value was “more rapid or efficacious than the partial α1-agonists”. For the same compound, the “antidepressant action in tail suspension test” value with Swiss Webster male mice [5] (i.p. 1, 3 and 10 mg/kg, FIG. 5) is “significant antidepressant action”. Also, the “signs of toxicity (reduced arousal, disheveled fur coat)” value with Swiss Webster male mice [6] (after repeated treatment, 0.5 mg/kg i.p. 11 daily treatments, no formal measures) is recorded as “no obvious signs of toxicity”. Moreover, the sedation result in the series with Swiss Webster male mice [6] (intracerebral 6FNE or peripheral dp6FNE, range of behavioral tests) was “Sedation has not been observed”. Besides, in the series on handling-stressed mice, the “home cage exploration / behavioral inhibition after handling and injection stress” value is reported as “same rescue of home cage exploration”. Moreover, in the series with Swiss Webster male mice [7], the “motor activity (quadrants entered)” value was “little or no effect on locomotor activity” and the “relative time in the center of the field” value is recorded as “increased time in the center of the field”. In addition, in the series on mice [8], the “time spent in the lighted side” value was “increased time spent”.

On to `COc1cc2nc(N3CCN(C(=O)C4CCCO4)CC3)nc(N)c2cc1OC` (centres unmarked) [terazosin], for which the “neural activity of the LC measured from c-Fos expression” value in series [9] was “excitation of virtually every neuron of the nucleus”. Further, the “affinity for respective receptor” value with α1-adrenoceptors is listed as “low nanomolar affinities”. Further, in the series with LC α1-adrenoceptors (setting [10]), the Cage midline crosses was 16.4 ± 1.5^c, the “Time immobile (min)” value is listed as 2.2 ± 0.5^c min and the Gross movements is 123.5 ± 7.9^c. Moreover, in the series with LC α1-adrenoceptors (setting [11]), the Cage midline crosses is listed as 9.2 ± 2.0^b,e, the “Time immobile (min)” value was 7.2 ± 1.6^b,d min and the Gross movements is recorded as 71.7 ± 11.7^a,d. In the series with LC α1-adrenoceptors (bilaterally injected animals), the “TI-” value is 7.4 ± 1.4 min, the “percent decrease of GMs with respect to vehicle” value is given as 54.6±9.1% and the “percent decrease of cage Xs with respect to vehicle” value was determined as 53.7±12.1%. The “percent depression of GMs compared to mean of the vehicle group” value (“percent depression of GMs” for short) with LC α1-adrenoceptors (direct hits of LC) was found to be 63.5±7.2%. Further, in the series on LC α1-adrenoceptors (setting [12]), the “increase of TI” value is 77 fold, the “reduction of GMs” value is reported as 54% and the “reduction of cage Xs” value stood at 55%. The “percent depression of GMs” value with LC α1-adrenoceptors (injection within 200μ of LC) is given as 54.0±7.5%. Also, in the series with LC α1-adrenoceptors (injection within 500μ of LC), the “percent depression of GMs” value is recorded as 45.6±7.0%. Also, in the series with LC α1-adrenoceptors (unilaterally injected animals), the “TI-” value came to 6.1 ± 1.7 min, the “percent decrease of GMs with respect to vehicle” value is on record as 50.5±11.1% and the “percent decrease of cage Xs with respect to vehicle” value was 52.1±16.5%. Further, the “effect of coinfused antagonist on anti-immobility effect of 6FNE” value in the series on Swiss Webster male mice [5] (6FNE 3 nmoles + antagonist 1 nmole ivt.) is “significantly increased immobility when coinfused with 6FNE”. Besides, the “effect of antagonist alone on immobility (antagonist+vehicle versus vehicle-only)” value in the series on Swiss Webster male mice [5] (antagonist 1 nmole ivt.) was “significantly increased immobility in the vehicle-treated animals”.
